Test results as given in paper PMC8011376 (Journal of the American Chemical Society, 2020).

Tests used:
Experiment in all cases: MIC determination, broth microdilution
K. pneumoniae = assay type: cell-based, Klebsiella pneumoniae; details: listed as measured MICs for polymyxin-supplemented assays
P. aeruginosa = assay type: cell-based, Pseudomonas aeruginosa; details: listed as measured MICs for polymyxin-supplemented assays
E. coli DH5α = assay type: cell-based, Escherichia coli; details: listed as measured MICs for polymyxin-supplemented assays
E. cloacae ATCC 13047 = assay type: cell-based, Enterobacter cloacae
A. baumannii = assay type: cell-based, Acinetobacter baumannii; details: listed as measured MICs for polymyxin-supplemented assays

polymyxin was tested, and the MIC of polymyxin (K. pneumoniae) was 0.15 µg/mL, the MIC of polymyxin (P. aeruginosa) was 0.15 µg/mL and the MIC of polymyxin (E. coli DH5α) was 0.0625 µg/mL. For the same substance, the MIC of polymyxin (E. cloacae ATCC 13047; E. cloacae ATCC 13047, strain not susceptible (note)) was > 64 µg/mL, the MIC of polymyxin (E. cloacae ATCC 13047; E. cloacae, value in the list of measured MICs) was 2 µg/mL and the MIC of polymyxin (A. baumannii) was 0.3 µg/mL.
